Values after ≈ are worked out from the molar mass of the structure shown. Where two headings read alike, the source gives them in different places.
Columns and labels:
[1] = system: collagen-induced platelet aggregation; experiment: In vitro inhibition of collagen-induced platelet aggregation (aggregometer, rabbit PRP); assay type: cell-based; conditions: Oryctolagus cuniculus, read-out: Platelet Inhibition In Vitro - Rabbit PRP EC50 vs. collagen
Experimental: (§1) The aggregometer method of Born (1), as modified by Mustard, et al. (2) was used to assess the in vitro activity of the various compounds as to inhibition of adenosine diphosphate (ADP) and collagen-induced platelet aggregation. Platelet rich plasma (PRP) was separated by centrifugation from citrated (3.8 percent) rabbit blood. […] The various compounds tested were dissolved in dimethylsulfoxide (DMSO) so that 5 mcl added to the platelet rich plasma would yield the desired test concentration. Vehicle control trials were done and compared with aggregation induced in platelet rich plasma containing various concentrations of the test compounds. Dose response curves were obtained and Effective Concentration (EC50) values calculated.

[2] = system: right ventricular contractile force (RVCF); experiment: In vivo inotropic activity (right ventricular contractile force, anesthetized ferrets); conditions: Mustela putorius, intraduodenal, read-out: Inotropic Activity In Vivo - Ferret % Change RVCF
Experimental: This test is carried out in ferrets as follows.
Fasted anesthetized ferrets are instrumented to study hemodynamic parameters as well as right ventricular contractile force using a Walton-Brodie open strain guage arch. Drugs are administered intraduodenally as solutions in DMSO (1 mL or less) and effects on myocardial contractile force and other parameters are monitored for 60 minutes after dosing. Changes in contractile force in response to drug treatment are expressed in terms of percent change from predose control.

[3] = molecular target: T1, cAMP phosphodiesterase (PDE) obtained from human platelets (Homo sapiens, UniProt Q14432); experiment: Inhibition of cyclic AMP phosphodiesterase; assay type: biochemical
T1 construct: obtained from human platelets; from tissue; host or cells: human platelets
T1 sequence (Q14432 whole entry): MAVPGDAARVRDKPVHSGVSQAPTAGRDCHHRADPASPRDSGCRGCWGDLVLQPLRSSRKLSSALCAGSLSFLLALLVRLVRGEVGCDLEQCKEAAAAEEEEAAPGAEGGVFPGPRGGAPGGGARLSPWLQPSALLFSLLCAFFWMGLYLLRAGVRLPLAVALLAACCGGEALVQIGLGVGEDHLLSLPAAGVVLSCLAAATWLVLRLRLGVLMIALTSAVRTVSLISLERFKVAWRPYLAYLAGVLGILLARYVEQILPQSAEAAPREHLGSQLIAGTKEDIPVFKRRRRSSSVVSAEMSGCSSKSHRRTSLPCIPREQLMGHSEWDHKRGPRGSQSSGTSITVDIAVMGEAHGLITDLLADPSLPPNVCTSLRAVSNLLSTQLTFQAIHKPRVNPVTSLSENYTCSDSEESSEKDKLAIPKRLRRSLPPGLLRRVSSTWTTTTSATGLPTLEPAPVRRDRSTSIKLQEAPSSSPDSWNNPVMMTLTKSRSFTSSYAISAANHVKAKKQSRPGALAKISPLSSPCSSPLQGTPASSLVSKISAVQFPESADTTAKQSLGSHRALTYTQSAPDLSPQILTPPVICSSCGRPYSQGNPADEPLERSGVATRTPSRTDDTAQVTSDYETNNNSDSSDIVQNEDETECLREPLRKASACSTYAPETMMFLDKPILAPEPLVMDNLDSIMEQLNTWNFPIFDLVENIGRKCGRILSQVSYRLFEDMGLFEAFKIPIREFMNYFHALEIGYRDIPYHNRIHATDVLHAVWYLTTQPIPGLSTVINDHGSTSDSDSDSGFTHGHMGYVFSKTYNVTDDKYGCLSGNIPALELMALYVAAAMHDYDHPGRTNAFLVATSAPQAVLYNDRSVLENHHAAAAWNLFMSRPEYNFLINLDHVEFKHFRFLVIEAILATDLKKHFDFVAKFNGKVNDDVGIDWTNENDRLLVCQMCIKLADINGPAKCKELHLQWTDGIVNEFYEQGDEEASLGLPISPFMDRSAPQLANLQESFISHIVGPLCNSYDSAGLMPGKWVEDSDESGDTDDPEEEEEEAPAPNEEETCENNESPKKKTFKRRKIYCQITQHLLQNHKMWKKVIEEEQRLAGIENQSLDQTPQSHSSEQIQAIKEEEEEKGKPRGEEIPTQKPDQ
Experimental: This assay is carried out essentially as described by Thompson, et al., Methods in Enzymology, 38, 205-212 (1974). Briefly, tritium labeled cyclic adenosine monophosphate (cAMP) is incubated with a phosphodiesterase (PDE) enzynme obtained from human platelets which converts a portion of the cAMP to 5'AMP in culture tubes. This reaction is terminated by submerging the tubes in a boiling water bath after which they are placed on ice and an aliquot of snake venom is added to each tube. This, during a second incubation, converts the 5'AMP to adenosine. Ion exchange resin is added to bind the remaining cyclic AMP. The tubes are centrifuged to sediment the resin and a portion of the clear supernatent (which contains radioactive adenosine) is counted in a liquid scintillation counter. The cAMP phosphodiesterase inhibition activity of a test agent is determined by pre-incubating the PDE enzyme preparation with the test agent.

[4] = system: ADP-induced platelet aggregation; experiment: In vitro inhibition of ADP-induced platelet aggregation (aggregometer, rabbit PRP); assay type: cell-based; conditions: Oryctolagus cuniculus, read-out: Platelet Inhibition In Vitro - Rabbit PRP EC50 vs. ADP
Experimental: as §1

[5] = system: platelet aggregation vs. ADP; experiment: Inhibition of platelet aggregation following oral administration (Ex vivo); assay type: in vivo; conditions: Rattus norvegicus, rats, 2 hours after dosing
Experimental: This test is sometimes referred to in the art as an Ex vivo method and was initially described by Fleming, et al., Arch. Int. Pharmacodyn. Ther., 199, 164 (1972). Briefly, the assay is essentially carried out as follows. Aggregometry is performed in vitro as previously described on platelet rich plasma samples obtained from rats dosed with either test compounds or the vehicle. In all cases, activity is determined 2 hours after the drug is administered orally at various doses by gavage as a suspension in […] plus a few drops of Tween 20.

[6] = 3 mg/kg, i.d., mean ± standard error when n more than 1

Row | SMILES | EC50 [1] [µg/mL] | change in vivo at 3 mg/kg [2, 6] [%] | IC50 [3] [nM] | EC50 [4] [µg/mL] | change in vivo at 0.3 mg/kg ([2]; 0.3 mg/kg, i.d.) [%] | ED50 [5] [mg/kg] | change in vivo at 3 mg/kg [2] [%]
1 | COc1ccc2nc3[nH]c(=O)[nH]c3cc2c1 [Example 12, 7-Methoxy-1,3-dihydro-2H-imidazo[4,5-b]quinolin-2-one] | 0.02 (≈ 0.0929 µM) | 11 ± 4 | – | – | – | – | –
2 | O=c1[nH]c2cc3cc(Br)ccc3nc2[nH]1 [Example 22, 7-Bromo-1,3-dihydro-2H-imidazo[4,5-b]quinolin-2-one] | 0.2 (≈ 0.757 µM) | – | 100 | 0.3 (≈ 1.14 µM) | – | – | –
3 | Cc1cccc2c1CC1NC(=O)NC1=N2 (centres unmarked) [Example 20-3, 8-methyl-1,3,9,9a-tetrahydro-2H-imidazo[4,5-b]quinolin-2-one] | 0.03 (≈ 0.149 µM) | 15 ± 4 | 100 | 0.05 (≈ 0.248 µM) | 30 ± 5 | – | –
4 | Cc1ccc2c(c1C)CC1NC(=O)NC1=N2 (centres unmarked) [Example 35, 7,8-Dimethyl-1,3,9,9a-tetrahydro-2H-imidazo-[4,5-b]quinolin-2-one] | 0.04 (≈ 0.186 µM) | – | 30 | 0.1 (≈ 0.465 µM) | – | > 10 | –
5 | O=c1[nH]c2cc3ccc(C(F)(F)F)cc3nc2[nH]1 [Example 25, 1,3-Dihydro-6-(trifluoromethyl)-2H-imidazo[4,5-b]quinolin-2-one] | 0.7 (≈ 2.76 µM) | – | 300 | 0.4 (≈ 1.58 µM) | – | > 10 | –
6 | Cc1[nH]c(=O)c(C#N)cc1-c1ccncc1 [milrinone, reference compound] | – | – | – | – | – | – | 52
7 | OCCN(CCO)c1nc(N2CCCCC2)c2nc(N(CCO)CCO)nc(N3CCCCC3)c2n1 [dipyridamole, reference compound] | – | – | – | > 512 | – | > 100 | –
8 | Cc1cccc2c1CC1C(=N2)NC(=O)N1C (centres unmarked) [Example 36, 1,3,9,9a-Tetrahydro-1,8-dimethyl-2H-imidazo[4,5-b]quinolin-2-one] | 12 (≈ 55.7 µM) | – | – | 20 (≈ 92.9 µM) | – | – | –

Reference: patent US4668686A, “Imidazoquinoline antithrombrogenic cardiotonic agents” (Bristol-Myers Company, priority 1986, dated 1987)
